Columns and labels:
[1] = tested on: Bovine viral diarrhea (BVD) virus; test: Anti-BVDV CPE inhibition assay in MDBK cells; conditions: for EC50: Bovine viral diarrhea virus isolates and strains, MDBK, in Bos taurus, 96 h; for SI (selectivity index, ratio of CC50 and EC50): CC50/EC50, MDBK cells, BVD virus
[2] = tested on: classical swine fever virus (CSFV) strain Alfort 187; test: microbe, parasite or virus in culture; type: cell-based; conditions: PK-15, in Sus scrofa, 48 h
[3] = Cytotoxicity in MDBK cells (no BVD virus added); conditions: bovine, MDBK cells (Madin-Darby bovine kidney), no virus added
[4] = tested on: BVDV type 1 strain SD1; conditions: 2 mg/kg i.v. 3x daily

SMILES	EC50 [1] [µM]	SI (selectivity index, ratio of CC50 and EC50) [1]	CC50 at 4 days [3] [µM]	further results
Cc1ccc2nc(Cn3ccc4nc(-c5cnn(C)c5C)nc-4c3)sc2c1 [CPD-1, 2-((2-(1,5-dimethyl-1H-pyrazol-4-yl)-5H-imidazo[4,5-c]pyridin-5-yl)methyl)-6-methylbenzo[d]thiazole]	0.013 ± 0.005	17769	231	EC50 [2]: 0.3 ± 0.1 µM
Cc1nc(Cn2ccc3nc(-c4ccccc4F)nc-3c2)sc1-c1ccccc1 [CPD-29, 2-((2-(2-fluorophenyl)-5H-imidazo[4,5-c]pyridin-5-yl)methyl)-4-methyl-5-phenylthiazole]	0.257 ± 0.107	>195	> 50	EC50 [2]: 2.8 ± 1.4 µM
Fc1ccc(OC(F)(F)F)cc1-c1nc2ccn(Cn3nnc4ccccc43)cc-2n1 [CPD-40, 1-((2-(2-fluoro-5-(trifluoromethoxy)phenyl)-5H-imidazo[4,5-c]pyridin-5-yl)methyl)-1H-benzo[d][1,2,3]triazole]	0.089 ± 0.018	539	48	EC50 [2]: 5.9 µM
Fc1ccccc1-c1cc2ccn(Cn3nnc4ccccc43)cc-2n1 [Compound I, 1-{[2-(2-fluorophenyl)-6H-pyrrolo[2,3-c]pyridin-6-yl]methyl}-1H-benzotriazole]	0.009 ± 0.008	2444	22	Antibody titre of seroconverted calf on Day 14 ([4]; 7 days, Day 14): 16; Calves seroconverted (anti-BVDV neutralizing antibodies) by Day 14 ([4]; 7 days, Day 14 post challenge): 1 out of 5; Average anti-BVDV neutralising antibody titre on Day 28 ([4]; 7 days, Day 28): 64; Haematology and clinical chemistry versus control group ([4]; calves, 7 days, Day 0, 7, 14, 21, 28): did not reveal any difference between both treatment groups; Adverse drug reactions on daily clinical monitoring ([4]; calves, 7 days, Day 0 to Day 28): No signs of adverse drug reactions were observed; BVDV virus isolation from buffy coat samples during treatment ([4]; calves, Day 0 to Day 6): could not be detected
Cc1ccc2nc(Cn3ccc4cc(-c5cc(OCCO)ccc5F)nc-4c3)sc2c1 [Compound XII, 2-(4-fluoro-3-(6-((6-methyl-1,3-benzothiazol-2-yl)methyl)-6H-pyrrolo[2,3-c]pyridin-2-yl)phenoxy)ethan-1-ol]	0.02 ± 0.007	250	5	–
Cc1ccc2nc(Cn3ccc4cc(-c5ccccc5CO)nc-4c3)sc2c1 [Compound XIII, (2-{6-[(6-methyl-1,3-benzothiazol-2-yl)methyl]-6H-pyrrolo[2,3-c]pyridin-2-yl}phenyl)methanol]	0.009 ± 0.008	2000	18	–
COc1ncccc1-c1cc2ccn(Cc3nc4ccc(C)cc4s3)cc-2n1 [Compound XIV, 2-{[2-(2-methoxypyridin-3-yl)-6H-pyrrolo[2,3-c]pyridin-6-yl]methyl}-6-methyl-1,3-benzothiazole]	0.017	235	4	–
OCCOc1ccc(F)c(-c2cc3cn(Cn4nnc5ccccc54)ccc-3n2)c1 [Compound XIX, 2-(3-{5-[(1H-benzotriazol-1-yl)methyl]-5H-pyrrolo[3,2-c]pyridin-2-yl}-4-fluorophenoxy)ethan-1-ol]	0.097 ± 0.015	>515	> 50	–
Cc1ccc2nc(Cn3ccc4cc(-c5cnn(C)c5C)nc-4c3)sc2c1 [Compound XV, 2-{[2-(1,5-dimethyl-1H-pyrazol-4-yl)-6H-pyrrolo[2,3-c]pyridin-6-yl]methyl}-6-methyl-1,3-benzothiazole]	0.016 ± 0.001	1063	17	–
Cc1ccc2nc(Cn3ccc4cc(-c5ccccc5CO)nc-4c3)[nH]c2c1 [Compound XVI, (2-(6-((6-methyl-1H-benzoimidazol-2-yl)methyl)-6H-pyrrolo[2,3-c]pyridin-2-yl)phenyl)methanol]	0.294 ± 0.07	75	22	–
Fc1ccccc1-c1cc2cn(Cn3nnc4ccccc43)ccc-2n1 [Compound XVII, 1-{[2-(2-fluorophenyl)-5H-pyrrolo[3,2-c]pyridin-5-yl]methyl}-1H-benzotriazole]	0.012 ± 0.006	1583	19	–
Fc1ccc(OC(F)(F)F)cc1-c1cc2cn(Cn3nnc4ccccc43)ccc-2n1 [Compound XVIII, 1-({2-[2-fluoro-5-(trifluoromethoxy)phenyl]-5H-pyrrolo[3,2-c]pyridin-5-yl}methyl)-1H-benzotriazole]	0.076 ± 0.019	158	12	–
COc1ccccc1-c1cc2cn(Cn3nnc4ccccc43)ccc-2n1 [Compound XX, 1-{[2-(2-methoxyphenyl)-5H-pyrrolo[3,2-c]pyridin-5-yl]methyl}-1H-benzotriazole]	0.082	476	39	–
OCc1ccccc1-c1cc2cn(Cn3nnc4ccccc43)ccc-2n1 [Compound XXI, (2-(5-((1H-Benzotriazol-1-yl)methyl)-5H-pyrrolo[3,2-c]pyridin-2-yl)phenyl)methanol]	0.387 ± 0.022	>129	> 50	–
N#Cc1ccc(-c2cc3cn(Cn4nnc5ccccc54)ccc-3n2)cc1 [Compound XXII, 4-{5-[(1H-benzotriazol-1-yl)methyl]-5H-pyrrolo[3,2-c]pyridin-2-yl}benzonitrile]	0.007 ± 0.005	3000	21	–
COc1ncccc1-c1cc2cn(Cn3nnc4ccccc43)ccc-2n1 [Compound XXIII, 1-((2-(2-methoxypyridin-3-yl)-5H-pyrrolo[3,2-c]pyridin-5-yl)methyl)-1H-benzotriazole]	0.082	390	32	–
Cc1c(-c2cc3cn(Cn4nnc5ccccc54)ccc-3n2)cnn1C [Compound XXIV, 1-((2-(1,5-dimethyl-1H-pyrazol-4-yl)-5H-pyrrolo[3,2-c]pyridin-5-yl)methyl)-1H-benzotriazole]	0.076 ± 0.019	158	12	–
Cc1ccc2nc(Cn3ccc4nc(-c5cc(OCCO)ccc5F)cc-4c3)sc2c1 [Compound XXIX, 2-(4-fluoro-3-(5-((6-methyl-1,3-benzothiazol-2-yl)methyl)-5H-pyrrolo[3,2-c]pyridin-2-yl)phenoxy)ethan-1-ol]	0.037 ± 0.03	432	16	–
Cc1ccc2oc(Cn3ccc4nc(-c5ccccc5F)cc-4c3)nc2c1 [Compound XXV, 2-{[2-(2-fluorophenyl)-5H-pyrrolo[3,2-c]pyridin-5-yl]methyl}-5-methyl-1,3-benzoxazole]	0.004 ± 0.002	1750	7	–
Cc1ccc2oc(Cn3ccc4nc(-c5ccccc5CO)cc-4c3)nc2c1 [Compound XXVI, (2-(5-((5-methyl-1,3-benzoxazol-2-yl)methyl)-5H-pyrrolo[3,2-c]pyridin-2-yl)phenyl)methanol]	0.311 ± 0.078	71	22	–
COc1ncccc1-c1cc2cn(Cc3nc4cc(C)ccc4o3)ccc-2n1 [Compound XXVII, 2-((2-(2-methoxypyridin-3-yl)-5H-pyrrolo[3,2-c]pyridin-5-yl)methyl)-5-methyl-1,3-benzoxazole]	0.016 ± 0.001	1313	21	–
Cc1ccc2nc(Cn3ccc4nc(-c5ccccc5F)cc-4c3)sc2c1 [Compound XXVIII, 2-{[2-(2-fluorophenyl)-5H-pyrrolo[3,2-c]pyridin-5-yl]methyl}-6-methyl-1,3-benzothiazole]	0.016	188	3	–
Cc1ccc2nc(Cn3ccc4nc(-c5ccccc5CO)cc-4c3)sc2c1 [Compound XXX, (2-{5-[(6-methyl-1,3-benzothiazol-2-yl)methyl]-5H-pyrrolo[3,2-c]pyridin-2-yl}phenyl)methanol]	0.019 ± 0.007	1053	20	–
COc1ncccc1-c1cc2cn(Cc3nc4ccc(C)cc4s3)ccc-2n1 [Compound XXXI, 2-{[2-(2-methoxypyridin-3-yl)-5H-pyrrolo[3,2-c]pyridin-5-yl]methyl}-6-methyl-1,3-benzothiazole]	0.006 ± 0.006	1667	10	–
Cc1ccc2nc(Cn3ccc4nc(-c5cnn(C)c5C)cc-4c3)sc2c1 [Compound XXXII, 2-{[2-(1,5-dimethyl-1H-pyrazol-4-yl)-5H-pyrrolo[3,2-c]pyridin-5-yl]methyl}-6-methyl-1,3-benzothiazole]	0.012 ± 0.008	1750	21	–
COc1ncccc1-c1cc2cn(Cc3nc4ccc(C)cc4[nH]3)ccc-2n1 [Compound XXXIV, 2-((2-(2-methoxypyridin-3-yl)-5H-pyrrolo[3,2-c]pyridin-5-yl)methyl)-6-methyl-1H-benzoimidazole]	0.395 ± 0.02	>127	> 50	–
Cc1ccc2nc(Cn3ccc4nc(-c5ccccc5CO)cc-4c3)[nH]c2c1 [XXXIII, [2-[5-[(6-methyl-1H-benzimidazol-2-yl)methyl]pyrrolo[3,2-c]pyridin-2-yl]phenyl]methanol]	1.9 ± 0.102	>26	> 50	–
